In patent publication US20050119489A1, “4-Sulfide/sulfoxide/sulfonyl-1h-pyrazolyl derivative compounds, for use in diseases associated with the 5-ht2c receptor” (priority 2001, published 2005):
Counter-ions that a name gives are not always drawn.

Target: T1, 5-HT2C receptor (Homo sapiens, UniProt P28335)
T1 sequence (P28335 33-458): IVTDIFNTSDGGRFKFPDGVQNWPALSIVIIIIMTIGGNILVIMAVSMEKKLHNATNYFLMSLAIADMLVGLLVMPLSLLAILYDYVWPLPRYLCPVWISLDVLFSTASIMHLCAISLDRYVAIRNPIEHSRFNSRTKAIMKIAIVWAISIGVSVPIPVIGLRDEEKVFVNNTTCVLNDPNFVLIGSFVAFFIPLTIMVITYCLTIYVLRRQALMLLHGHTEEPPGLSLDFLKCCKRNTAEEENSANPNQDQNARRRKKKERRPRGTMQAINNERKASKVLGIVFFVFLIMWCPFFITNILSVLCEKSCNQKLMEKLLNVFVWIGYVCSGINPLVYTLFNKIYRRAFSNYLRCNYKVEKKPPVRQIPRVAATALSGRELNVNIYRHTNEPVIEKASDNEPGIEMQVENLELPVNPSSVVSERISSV
Settings: cited from earlier work

For `Cc1cc2c(cc1Cl)N(C(=O)Nc1ccc(Oc3cccnc3C)nc1)CC2` [SB-242084], the “selectivity as 5-HT2C receptor antagonist” value is listed as “at least 100 fold”.

System: not given
Settings: not given

Point of comparison: `CCc1nn(C(C)C(N)=O)c(CC)c1Sc1ccc(F)cc1` (stereo not drawn) (as salt: hydrochloride), melting point 167 °C. Against it:
- CCc1nn(C[C@H](C)N)c(CC)c1S(=O)(=O)c1ccc(N2CCCC(C)(C)C2=O)cc1.Cl — lower, 131 °C
- CCc1nn(CCNC)c(CC)c1Sc1ccc(F)cc1.O=C(O)/C=C\C(=O)O — lower, 95 to 97 °C
- CCc1nn(CC(C)(C)N)c(CC)c1Sc1ccc(F)cc1.O=C(O)/C=C\C(=O)O — lower, 120 to 122 °C
- CCc1nn(C(C)CN)c(CC)c1Sc1ccc(F)cc1.O=C(O)/C=C\C(=O)O (stereo not drawn) — lower, 162 °C
- Cc1nn(CCN)c(C)c1Sc1ccccc1 (as salt: HCl) [Example 2, 2-[3,5-dimethyl-4-(phenylsulfanyl)-1H-pyrazol-1-yl]ethylamine] — higher, 185 to 188 °C
- CCc1nn(CCN)c(CC)c1Sc1nnnn1C (as salt: salt) [Example 204] — lower, 148 °C
- CCc1nn(CCN)c(CC)c1Sc1nccc(C(F)(F)F)n1 (as salt: salt) [Example 205] — lower, 154 °C
- CCc1nn(CCNC)c(CC)c1S(=O)(=O)c1ccc(N2C(=O)CC(C)(C)C2=O)cc1 [Example 160, 1-[4-({3,5-diethyl-1-[2-(methylamino)ethyl]-1H-pyrazol-4-yl}sulfonyl)phenyl]-3,3-dimethyl-2,5-pyrrolidinedione] — lower, 84 to 86 °C

Target: 5-HT2 receptors
Settings: cited from earlier work

In the case of `Cc1nc2sccn2c(=O)c1CCN1CCC(=C(c2ccc(F)cc2)c2ccc(F)cc2)CC1` [ritanserin], the “pKi for the 5-HT2 receptors” value is given as 8.9.

For `Cc1nc2sccn2c(=O)c1CCN1CCC(=C(c2ccc(F)cc2)c2ccc(F)cc2)CC1` [ritanserin], the “selectivity for the 5-HT2 receptors over 5-HT, receptors” value is listed as 10,000 fold.
